# Values joined by “and” are separate entries in the source; they are usually repeats but may differ in a detail not shown here. Equal values may be shown once.
# Assays:
# HepG2 = assay: Repeated-exposure DILI training compounds, resazurin conversion, HepG2; settings: listed as Nefadazone; for resazurin conversion (Supplementary Figure 7D): replicates; for % resazurin conversion: repeat exposure
# In short: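 PSC-derived cells differentiated in 384-well format, plus HepG2 seeded at 40,000 cells/well, received drugs after 8 h of attachment; untreated wells served as negative controls. Viability was measured by resazurin conversion and related to therapeutic Cmax values.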
# HLC = assay: Repeated-exposure DILI training compounds, resazurin conversion, HLC; settings: listed as Nefadazone; for resazurin conversion (Supplementary Figure 7D): replicates; for % resazurin conversion: repeat exposure
# In short: (§1)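 Hepatotoxicity prediction used a miniaturized 384-well differentiation setup, scoring viability through resazurin reduction relative to Cmax.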
# HC3X = assay: Repeated-exposure DILI training compounds, resazurin conversion, HC3X; settings: for resazurin conversion (Supplementary Figure 7D): HC3X AAGLY D40, replicates
# In short: as §1
# HC6X = assay: Repeated-exposure DILI training compounds, resazurin conversion, HC6X; settings: listed as Nefadazone; for resazurin conversion (Supplementary Figure 7D): replicates; for % resazurin conversion: repeat exposure
# In short: as §1
structure (smiles),measurement,setting,value
CCc1nn(CCCN2CCN(c3cccc(Cl)c3)CC2)c(=O)n1CCOc1ccccc1 [nefazodone],resazurin conversion (Supplementary Figure 7D),"HepG2; HepG2 AAGLY D30, 3 uM",105.9 and 126.8 and 102.6 and 103 and 93.1 and 96.9
same,resazurin conversion (Supplementary Figure 7D),"HepG2; HepG2 AAGLY D30, 5 uM",129.6 and 134.9 and 121.5 and 111.6 and 104 and 111.7
same,resazurin conversion (Supplementary Figure 7D),"HepG2; HepG2 AAGLY D30, 10 uM",105.3 and 123.3 and 96.5 and 99.1 and 96.1 and 97.4
same,resazurin conversion (Supplementary Figure 7D),"HepG2; HepG2 AAGLY D30, 30 uM",36 and 76.7 and 84.8 and 78.3 and 78 and 67.3
same,resazurin conversion (Supplementary Figure 7D),"HepG2; HepG2 AAGLY D30, 50 uM",9 and 9.3 and 8 (2×) and 8.1 and 7.7
same,resazurin conversion (Supplementary Figure 7D),"HepG2; HepG2 AAGLY D30, 100 uM",9.2 and 9.7 and 8.4 (2×) and 7.9 and 8.1
same,resazurin conversion (Supplementary Figure 7D),"HepG2; HepG2 AAGLY D30, 300 uM",11.5 and 11.8 and 10.1 (2×) and 10.3 and 9.9
same,resazurin conversion (Supplementary Figure 7D),"HepG2; HepG2 AAGLY D30, 600 uM",11.8 and 11.6 and 10.3 and 10.8 and 10.2 and 10.1
same,resazurin conversion (Supplementary Figure 7D),"HepG2; HepG2 CTL D7, 3 uM",81.4 and 72 and 103.7 and 72.2 and 87 and 94.4
same,resazurin conversion (Supplementary Figure 7D),"HepG2; HepG2 CTL D7, 5 uM",84.8 and 64.7 and 80.3 and 68.3 and 74.8 and 74.1
same,resazurin conversion (Supplementary Figure 7D),"HepG2; HepG2 CTL D7, 10 uM",81.6 and 63.4 and 87.3 and 63.9 and 78.5 and 72.9
same,resazurin conversion (Supplementary Figure 7D),"HepG2; HepG2 CTL D7, 30 uM",60.5 and 51.3 and 64.3 and 51.4 and 61.6 and 55.4
same,resazurin conversion (Supplementary Figure 7D),"HepG2; HepG2 CTL D7, 50 uM",35.6 and 31 and 32.6 and 33.9 and 34.6 and 33.7
same,resazurin conversion (Supplementary Figure 7D),"HepG2; HepG2 CTL D7, 100 uM",30.9 and 30.6 and 31.4 and 30 and 30.5 and 29.7
same,resazurin conversion (Supplementary Figure 7D),"HepG2; HepG2 CTL D7, 300 uM",36.6 and 35.8 and 37 and 36.1 and 37.2 and 36
same,resazurin conversion (Supplementary Figure 7D),"HepG2; HepG2 CTL D7, 600 uM",37.5 (2×) and 36.2 and 38.4 and 36.6 and 34.9
same,% resazurin conversion,"HepG2; HepG2 AAGLY D30, 1200 uM",11% and 9.3% and 9.9% and 9.1%
same,% resazurin conversion,"HepG2; HepG2 CTL D7, 1200 uM",34.4% and 33.1% and 36.4% and 33% and 34.9% and 32.3%
same,resazurin conversion (Supplementary Figure 7D),"HLC; HLC AAGLY D40, 3 uM",81 and 139.4 and 131.8 and 81.1 and 194.1 and 102.8
same,resazurin conversion (Supplementary Figure 7D),"HLC; HLC AAGLY D40, 5 uM",158.2 and 102.6 and 130.1 and 239.6 and 167 and 46.2
same,resazurin conversion (Supplementary Figure 7D),"HLC; HLC AAGLY D40, 10 uM",117.1 and 195.1 and 92.8 and 87 and 6 and 258.8
same,resazurin conversion (Supplementary Figure 7D),"HLC; HLC AAGLY D40, 30 uM",52.4 and 182.9 and 124.1 and 55.1 and 48.3 and 27
same,resazurin conversion (Supplementary Figure 7D),"HLC; HLC AAGLY D40, 50 uM",46.9 and 25.2 and 26.1 and 23.4 and 30.1 and 22.3
same,resazurin conversion (Supplementary Figure 7D),"HLC; HLC AAGLY D40, 100 uM",22.1 and 23 and 22.5 and 22.9 and 24.2 and 22.8
same,resazurin conversion (Supplementary Figure 7D),"HLC; HLC AAGLY D40, 300 uM",25.4 and 26.9 (2×) and 25.9 and 25.8 and 27.1
same,resazurin conversion (Supplementary Figure 7D),"HLC; HLC AAGLY D40, 600 uM",27.4 and 30.3 and 28.5 and 29.2 and 27.1 and 28.7
same,resazurin conversion (Supplementary Figure 7D),"HLC; HLC LDM D40, 3 uM",101.3 and 106.4 and 83.1 and 128.8 and 110.4 and 128.2
same,resazurin conversion (Supplementary Figure 7D),"HLC; HLC LDM D40, 5 uM",103.9 and 126.1 and 116.3 and 112.6 and 76.1 and 103.3
same,resazurin conversion (Supplementary Figure 7D),"HLC; HLC LDM D40, 10 uM",114.4 and 115.2 and 124.5 and 104.3 and 103.8 and 111.5
same,resazurin conversion (Supplementary Figure 7D),"HLC; HLC LDM D40, 30 uM",92.8 and 75.4 and 51.3 and 90.2 and 120.8 and 118.9
same,resazurin conversion (Supplementary Figure 7D),"HLC; HLC LDM D40, 50 uM",12.7 and 17.8 and 12.3 and 20.8 and 25.8 and 69.6
same,resazurin conversion (Supplementary Figure 7D),"HLC; HLC LDM D40, 100 uM",11 and 11.6 and 11.2 and 11.3 and 10.7 and 11.5
same,resazurin conversion (Supplementary Figure 7D),"HLC; HLC LDM D40, 300 uM",13.5 and 13.3 and 13.6 and 12.4 and 12.2 (2×)
same,resazurin conversion (Supplementary Figure 7D),"HLC; HLC LDM D40, 600 uM",13.7 (2×) and 13.1 and 13.4 and 13.5 and 13.2
same,% resazurin conversion,"HLC; HLC AAGLY D40, 1200 uM",28.9% and 30.9% and 30.5% and 32.9% and 28% and 30.1%
same,% resazurin conversion,"HLC; HLC LDM D40, 1200 uM",14.7% and 15.3% and 13.9% and 14.1% and 13.7% and 12%
same,resazurin conversion (Supplementary Figure 7D),"HC3X; 3 uM, listed as Nefadazone",123.3 and 103.5 and 107.9 and 73 and 98.7 and 69.4
same,resazurin conversion (Supplementary Figure 7D),"HC3X; 5 uM, listed as Nefadazone",105.3 and 82.4 and 66.4 and 71.1 and 119.1 and 75.8
same,resazurin conversion (Supplementary Figure 7D),"HC3X; 10 uM, listed as Nefadazone",99 and 147.2 and 96.3 and 91.8 and 116 and 76.9
same,resazurin conversion (Supplementary Figure 7D),"HC3X; 30 uM, listed as Nefadazone",10.5 and 10.9 and 12.1 and 10 and 9.5 and 10.1
same,resazurin conversion (Supplementary Figure 7D),"HC3X; 50 uM, listed as Nefadazone",10 and 9.9 and 9.3 (2×) and 9.2 and 9.8
same,resazurin conversion (Supplementary Figure 7D),"HC3X; 100 uM, listed as Nefadazone",10.6 and 10.4 and 9.7 and 9.8 and 9.4 and 9.6
same,resazurin conversion (Supplementary Figure 7D),"HC3X; 300 uM, listed as Nefadazone",11.9 and 11.5 and 10.9 and 11.2 and 10.5 and 10.7
same,resazurin conversion (Supplementary Figure 7D),"HC3X; 600 uM, listed as Nefadazone",12 and 12.2 and 11.3 and 11.6 and 11.1 and 10.9
same,IC50/Cmax,HC3X; human,12.43
same,% resazurin conversion,"HC3X; repeat exposure, HC3X AAGLY D40, 1200 uM, listed as Nefadazone",12.8% and 12.4% and 11.8% and 12.1% and 11.5% and 12.2%
same,resazurin conversion (Supplementary Figure 7D),"HC6X; HC6X AAGLY D40, 3 uM",86.5 and 67.1 and 73.3 and 119.9 and 72.8 and 62.6
same,resazurin conversion (Supplementary Figure 7D),"HC6X; HC6X AAGLY D40, 5 uM",140.1 and 114.8 and 61.7 and 68.6 and 76.5 and 54.7
same,resazurin conversion (Supplementary Figure 7D),"HC6X; HC6X AAGLY D40, 10 uM",51.6 and 55.1 and 57.3 and 43.6 and 49.8 and 39.8
same,resazurin conversion (Supplementary Figure 7D),"HC6X; HC6X AAGLY D40, 30 uM",34.6 and 33.4 and 31.3 and 32.6 and 37.8 and 31.2
same,resazurin conversion (Supplementary Figure 7D),"HC6X; HC6X AAGLY D40, 50 uM",34.2 and 34.7 and 32 and 32.2 and 31.8 and 32.4
same,resazurin conversion (Supplementary Figure 7D),"HC6X; HC6X AAGLY D40, 100 uM",37.1 and 36.6 and 34.3 and 34.6 and 33.8 and 34.2
same,resazurin conversion (Supplementary Figure 7D),"HC6X; HC6X AAGLY D40, 300 uM",40.6 and 41.1 and 39.2 and 40 and 39.1 and 37.4
same,resazurin conversion (Supplementary Figure 7D),"HC6X; HC6X AAGLY D40, 600 uM",39.7 and 40.4 and 38.5 and 38.6 and 37.6 and 37.9
same,resazurin conversion (Supplementary Figure 7D),"HC6X; HC6X AAGLY D40 Remove dox, 3 uM",183.4 and 100.9 and 109.5 and 115 and 122 and 109.2
same,resazurin conversion (Supplementary Figure 7D),"HC6X; HC6X AAGLY D40 Remove dox, 5 uM",251 and 184.4 and 147 and 113 and 98.3 and 98.4
same,resazurin conversion (Supplementary Figure 7D),"HC6X; HC6X AAGLY D40 Remove dox, 10 uM",257.2 and 78.2 and 239.1 and 205.6 and 148.8 and 110.7
same,resazurin conversion (Supplementary Figure 7D),"HC6X; HC6X AAGLY D40 Remove dox, 30 uM",87 and 111.9 and 134.6 and 112.2 and 58.4 and 83.6
same,resazurin conversion (Supplementary Figure 7D),"HC6X; HC6X AAGLY D40 Remove dox, 50 uM",39.8 and 27.8 and 36.9 and 29.8 and 32 and 29.6
same,resazurin conversion (Supplementary Figure 7D),"HC6X; HC6X AAGLY D40 Remove dox, 100 uM",29.7 (2×) and 28.9 and 29.4 and 29.6 and 29.1
same,resazurin conversion (Supplementary Figure 7D),"HC6X; HC6X AAGLY D40 Remove dox, 300 uM",34.3 and 32.8 and 33.8 and 34 and 34.1 and 34.5
same,resazurin conversion (Supplementary Figure 7D),"HC6X; HC6X AAGLY D40 Remove dox, 600 uM",36.7 (2×) and 35.4 and 36 and 36.5 and 36.3
same,% resazurin conversion,"HC6X; HC6X AAGLY D40, 1200 uM",40.4% and 40.1% and 39.1% and 39.2% and 37.6% and 37.4%
same,% resazurin conversion,"HC6X; HC6X AAGLY D40 Remove dox, 1200 uM",38.2% and 35.3% and 36.9% and 37.7% and 37% and 35.8%

# — publication PMC7069944, “Amino acid levels determine metabolism and CYP450 function of hepatocytes and hepatoma cell lines” (Nature Communications, 2020)
